Values quoted from earlier work in patent US20180161299A1, “ESSENTIAL NUTRIENTS AND RELATED METHODS” (Balchem Corporation, priority 2016, published 2018).

Tests used:
[1] = pregnant women, choline intake increased from 480 mg to 930 mg

| increase in the amount of B12 analogues present in the GI tract and in the circulation (large oral and systemic doses of B12) | vitamin B12 absorbed by diffusion from the gastrointestinal tract (large oral doses (500 μg to 5000 μg)) | vitamin B12 absorbed (typical oral vitamin B12 supplementations) | choline excreted in the urine [1] | Compound |
| --- | --- | --- | --- | --- |
| more than 10 fold | less than 1% | less than 1% | – | cobalamin [Vitamin B12] |
| – | – | – | little, if any | C[N+](C)(C)CCO [choline, N,N,N-trimethylethanolammonium cation] |
